Measurements taken from patent publication US12459951B2, “Compounds that interact with RAS superfamily proteins for treatment of cancers, inflammatory diseases, rasopathies, and fibrotic disease” (SHY Therapeutics, LLC, priority 2022, dated 2025).
Where a name gives a salt, the structure may show the parent alone.

Key:
Akt phosphorylation = test: Akt Phosphorylation Assay (western blot), Panc-1; format: cell-based, human; conditions: at 10 μM, * = activation
Method: Protocol for Western Akt Cell-Based Phosphorylation Assay
This assay is referred to as the “Akt Phosphorylation Assay” throughout this application.
Human tumor-derived pancreatic cancer cell line Panc-1 (expressing KRas G12D mutant) was purchased from American Type Culture Collection and grown in complete DMEM-High Glucose supplemented with penicillin (100 U/mL), streptomycin (100 μg/mL), and 10% heat-inactivated FBS at 37° C. in a humidified incubator with 5% CO2.
Method 1: Cells were plated at 350000 cells/well density in a 12-well plate, allowed 3 hours to adhere to the plate, then starved in the appropriate medium in the presence of 0.5% FBS overnight. The small molecules to be tested were added to the cells in the final concentration of 10 μM in the presence of 0.3% DMSO for 6 hours incubation at 37° C. Next, cells were stimulated with 1.5 ng/ml EGF for 15 minutes then cells were lysed with lysis buffer containing 1% Triton X-100, EDTA, and Halt™ Protease & Phosphatase Inhibitor Cocktail (Thermo Scientific). Protein concentration was assessed by BCA protein assay (Thermo Scientific). Phosphorylation level of Akt was determined by western blot.
Method 2: Cells were plated at 350000 cells/well density in a 12-well plate in 10% FBS. The next day small molecules to be tested were added to the cells in the final concentration of 10 μM in the presence of 0.3% DMSO for 6 hours incubation at 37° C. For IC50 value determination, serial dilutions of compounds were added to cells under the same conditions. Next, cells were lysed with lysis buffer containing 1% Triton X-100, EDTA, and Halt™ Protease & Phosphatase Inhibitor Cocktail (Thermo Scientific). Protein concentration was assessed by BCA protein assay (Thermo Scientific). Phosphorylation level of Akt was determined by western blot.
Western blot protocol: Equal amounts of protein (15-50 μg) were separated by SDS-PAGE and transferred to nitrocellulose membranes (Invitrogen by Thermo Fisher Scientific). The membrane was stained with Ponceau S Stain (Boston BioProducts) to verify uniform protein loading. Membranes were blocked with 10% milk and phosphorylation levels of Akt were assessed by incubating overnight at 4° C. with anti-phospho-Akt (Ser473) antibody (Cell Signaling) followed by HRP-conjugated secondary antibody (Jackson Immunoresearch, West Grove, PA). Bands were incubated in Amersham ECL Prime Western Blotting Detection Reagent (GE Healthcare) and visualized using the ChemiDoc MP imaging system (Bio-Rad).

IL6 = test: IL-6 Quantification Assay (ELISA), LPS-stimulated RAW 264.7; format: cell-based; set-up: inhibition: dose or concentration left out as unconfirmed; conditions: Mus musculus, RAW264.7; read-out: IL-6: % inh.
TNF-alpha = TNF-alpha Quantification Assay (ELISA), LPS-stimulated RAW 264.7; format: cell-based; conditions: Mus musculus, RAW264.7; at 10 μM; read-out: TNFα: % inh.

Compound | % inh of Akt phosphorylation in Panc-1 (Akt phosphorylation) | inhibition (IL6) [%] | inhibition at 10 µM (TNF-alpha) [%]
CO[C@H]1CC[C@@H](Nc2nc(-c3ccccn3)nn3cc(-c4ccn(C(C)C)n4)c(C)c23)C1 (racemic) [Compound 9, rac 6-(1-Isopropyl-1H-pyrazol-3-yl)-N-((1R,3S)-3-methoxycyclopentyl)-5-methyl-2-(pyridin-2-yl)pyrrolo[2,1-f][1,2,4]triazin-4-amine] | 0 (0% inhibition) | 1 to 24 | 0
CO[C@@H]1CC[C@@H](Nc2nc(-c3nccn3C)nn3cc(-c4ccn(C)n4)c(C)c23)C1 (racemic) [Compound 132, rac N-((1R,3R)-3-Methoxycyclopentyl)-5-methyl-2-(1-methyl-1H-imidazol-2-yl)-6-(1-methyl-1H-pyrazol-3-yl)pyrrolo[2,1-f][1,2,4]triazin-4-amine] | A (1-25% inhibition) | 0 | 0
CO[C@H]1CC[C@@H](Nc2nc(-c3nccn3C)nn3cc(-c4ccn(C)n4)c(C)c23)C1 (racemic) [Compound 133, rac N-((1R,3S)-3-Methoxycyclopentyl)-5-methyl-2-(1-methyl-1H-imidazol-2-yl)-6-(1-methyl-1H-pyrazol-3-yl)pyrrolo[2,1-f][1,2,4]triazin-4-amine] | B (26-49% inhibition) | 0 | 1 to 24
CO[C@@H]1CC[C@@H](Nc2nc(-c3nccn3C)nn3cc(-c4cccnc4)c(C)c23)C1 (racemic) [Compound 154, rac N-((1R,3R)-3-methoxy-cyclopentyl)-5-methyl-2-(1-methyl-1H-imidazol-2-yl)-6-(pyridin-3-yl)pyrrolo[2,1-f][1,2,4]triazin-4-amine] | B* (26-49% activation) | 25 to 49 | 0
CO[C@H]1CC[C@@H](Nc2nc(-c3nccn3C)nn3cc(-c4cccnc4)c(C)c23)C1 (racemic) [Compound 155, rac N-((1R,3S)-3-methoxy-cyclopentyl)-5-methyl-2-(1-methyl-1H-imidazol-2-yl)-6-(pyridin-3-yl)pyrrolo[2,1-f][1,2,4]triazin-4-amine] | A (1-25% inhibition) | 25 to 49 | 0
COc1cc(-c2cn3nc(-c4nccn4C)nc(N[C@@H]4CC[C@@H](OC)C4)c3c2C)ccn1 (racemic) [Compound 163, rac N-((1R,3R)-3-Methoxycyclopentyl)-6-(2-methoxypyridin-4-yl)-5-methyl-2-(1-methyl-1H-imidazol-2-yl)pyrrolo[2,1-f][1,2,4]triazin-4-amine] | A* (1-25% activation) | 75 to 100 | 1 to 24
COc1cc(-c2cn3nc(-c4nccn4C)nc(N[C@@H]4CC[C@H](OC)C4)c3c2C)ccn1 (racemic) [Compound 164, rac N-((1R,3S)-3-Methoxycyclopentyl)-6-(2-methoxypyridin-4-yl)-5-methyl-2-(1-methyl-1H-imidazol-2-yl)pyrrolo[2,1-f][1,2,4]triazin-4-amine] | A* (1-25% activation) | 75 to 100 | 1 to 24
Cc1c(-c2ccn(C(C)C)n2)cn2nc(-c3ccccn3)nc(O)c12 [Compound 8, 6-(1-Isopropyl-1H-pyrazol-3-yl)-5-methyl-2-(pyridin-2-yl)pyrrolo[2,1-f][1,2,4]triazin-4-ol] | 0 (0% inhibition) | 0 | 0
Cc1c(-c2ccn(C(C)C)n2)cn2nc(-c3nccn3C)nc(Nc3nccn3C)c12 [Compound 93, 6-(1-Isopropyl-1H-pyrazol-3-yl)-5-methyl-N,2-bis(1-methyl-1H-imidazol-2-yl)pyrrolo[2,1-f][1,2,4]triazin-4-amine] | D* (85-100% activation) | 75 to 100 | 75 to 100
COc1cc(Nc2nc(-c3nccn3C)nn3cc(-c4ccccn4)c(C)c23)ncn1 [Compound 94, N-(6-Methoxypyrimidin-4-yl)-5-methyl-2-(1-methyl-1H-imidazol-2-yl)-6-(pyridin-2-yl)pyrrolo[2,1-f][1,2,4]triazin-4-amine] | D* (85-100% activation) | 50 to 74 | 25 to 49
COc1ccnc(Nc2nc(-c3nccn3C)nn3cc(-c4ccn(C(F)F)n4)c(C)c23)n1 [Compound 95, 6-(1-(Difluoromethyl)-1H-pyrazol-3-yl)-N-(4-methoxypyrimidin-2-yl)-5-methyl-2-(1-methyl-1H-imidazol-2-yl)pyrrolo[2,1-f][1,2,4]triazin-4-amine] | D* (85-100% activation) | 1 to 24 | 1 to 24
Cc1c(-c2ccn(C(C)C)n2)cn2nc(-c3nccn3C)nc(Nc3nccc(OCCN(C)C)n3)c12 [Compound 96, N-(4-(2-(Dimethylamino)ethoxy)pyrimidin-2-yl)-6-(1-isopropyl-1H-pyrazol-3-yl)-5-methyl-2-(1-methyl-1H-imidazol-2-yl)pyrrolo[2,1-f][1,2,4]triazin-4-amine] | D* (85-100% activation) | 50 to 74 | 0
Cc1c(-c2ccn(C(C)C)n2)cn2nc(-c3nccn3C)nc(Nc3cc(OCCO)ncn3)c12 [Compound 97, 2-((6-((6-(1-Isopropyl-1H-pyrazol-3-yl)-5-methyl-2-(1-methyl-1H-imidazol-2-yl)pyrrolo[2,1-f][1,2,4]triazin-4-yl)amino)pyrimidin-4-yl)oxy) ethan-1-ol] | D* (85-100% activation) | 1 to 24 | 0
COc1cc(Nc2nc(-c3nccn3C)nn3cc(-c4ccn(C(F)F)n4)c(C)c23)ncn1 [Compound 98, 6-(1-(Difluoromethyl)-1H-pyrazol-3-yl)-N-(6-methoxypyrimidin-4-yl)-5-methyl-2-(1-methyl-1H-imidazol-2-yl)pyrrolo[2,1-f][1,2,4]triazin-4-amine] | D* (85-100% activation) | 1 to 24 | 0
Cc1c(-c2ccn(C)n2)cn2nc(-c3nccn3C)nc(Cl)c12 [Compound 99, 4-Chloro-5-methyl-2-(1-methyl-1H-imidazol-2-yl)-6-(1-methyl-1H-pyrazol-3-yl)pyrrolo[2,1-f][1,2,4]triazine] | A* (1-25% activation) | 75 to 100 | 75 to 100
Cc1c(-c2ccn(C)n2)cn2nc(-c3nccn3C)nc(Nc3cc(OCCO)ncn3)c12 [Compound 101, 2-((6-((5-Methyl-2-(1-methyl-1H-imidazol-2-yl)-6-(1-methyl-1H-pyrazol-3-yl)pyrrolo[2,1-f][1,2,4]triazin-4-yl)amino)pyrimidin-4-yl)oxy) ethan-1-ol] | D* (85-100% activation) | 50 to 74 | 0
CO[C@H]1C[C@H](Nc2nc(-c3nccn3C)nn3cc(-c4ccn(C)n4)c(C)c23)C1 [Compound 103, N-((1r,3r)-3-Methoxycyclobutyl)-5-methyl-2-(1-methyl-1H-imidazol-2-yl)-6-(1-methyl-1H-pyrazol-3-yl)pyrrolo[2,1-f][1,2,4]triazin-4-amine hydrochloride salt] | C* (46-84% activation) | 0 | 0
Cc1c(-c2ccn(C)n2)cn2nc(-c3nccn3C)nc(Nc3nccc(OCCN(C)C)n3)c12 [Compound 105, N-(4-(2-(Dimethylamino)ethoxy)pyrimidin-2-yl)-5-methyl-2-(1-methyl-1H-imidazol-2-yl)-6-(1-methyl-1H-pyrazol-3-yl)pyrrolo[2,1-f][1,2,4]triazin-4-amine] | C* (46-84% activation) | 75 to 100 | 0
Cc1c(-c2ccn(C)n2)cn2nc(-c3nccn3C)nc(Nc3nccn3C)c12 [Compound 106, 5-Methyl-N,2-bis(1-methyl-1H-imidazol-2-yl)-6-(1-methyl-1H-pyrazol-3-yl)pyrrolo[2,1-f][1,2,4]triazin-4-amine] | D* (85-100% activation) | 50 to 74 | 0
